Experimental data published in patent US8012975B2, “Antitumoral analogs of ET-743” (Pharma Mar, S.A., priority 2000, dated 2011).
Like-named read-outs stand apart in the source and are kept apart here.

Key:
[1] = system: Hut 78; assay: Cytotoxic activity (M) panel, Lymphoma Cutaneus T cell Hut 78; conditions: Homo sapiens, HuT78, read-out: CYTOTOXIC ACTIVITY (M) Hut 78, leukemias & lymphomas, Lymphoma Cutaneus T cell, line Hut 78
[2] = system: MC116; assay: Cytotoxic activity (M) panel, Lymphoma undifferentiated MC116; conditions: Homo sapiens, MC116, read-out: CYTOTOXIC ACTIVITY (M) MC116, leukemias & lymphomas, Lymphoma undifferentiated, line MC116
[3] = system: U-937; assay: Cytotoxic activity (M) panel, Lymphoma Histiocytic U-937; conditions: Homo sapiens, U-937, read-out: CYTOTOXIC ACTIVITY (M) U-937
[4] = system: Molt 3; assay: Cytotoxic activity (M) panel, Acute lymphoblastic Molt 3; conditions: Homo sapiens, MOLT-3, read-out: CYTOTOXIC ACTIVITY (M) Molt 3, leukemias & lymphomas, ALL Acute lymphoblastic, line Molt 3
[5] = in vitro; conditions: African green monkey
[6] = system: MEL-28; assay: Cytotoxic activity IC50, MEL-28; conditions: Homo sapiens, SK-MEL-28, read-out: CYTOTOXIC ACTIVITIY IC50 (μM) MEL-28, MEL-28
[7] = system: P-388; assay: Cytotoxic activity IC50, P-388; conditions: Mus musculus, P388, read-out: CYTOTOXIC ACTIVITIY IC50 (μM) P-388
[8] = system: A-549; assay: Cytotoxic activity IC50, A-549; conditions: Homo sapiens, A549, read-out: CYTOTOXIC ACTIVITIY IC50 (μM) A-549, A-549
[9] = system: HT-29; assay: Cytotoxic activity IC50, HT-29; conditions: Homo sapiens, HT-29, read-out: CYTOTOXIC ACTIVITIY IC50 (μM) HT-29, HT-29
[10] = system: DU-145
[11] = system: HT-29
[12] = system: MEL-28
[13] = system: A-549
[14] = system: P-388
[15] = system: DU-145; assay: Cytotoxic activity IC50, DU-145; conditions: Homo sapiens, DU-145, read-out: CYTOTOXIC ACTIVITIY IC50 (μM) DU-145, DU-145
[16] = system: Hs746t; assay: Cytotoxic activity (M) panel, Gastric Hs746t; conditions: Homo sapiens, read-out: CYTOTOXIC ACTIVITY (M) Hs746t
[17] = system: 786-O; assay: Cytotoxic activity (M) panel, Renal 786-O; conditions: Homo sapiens, 786-0, read-out: CYTOTOXIC ACTIVITY (M) 786-O
[18] = system: PANC-1; assay: Cytotoxic activity (M) panel, Pancreas PANC-1; conditions: Homo sapiens, PANC-1, read-out: CYTOTOXIC ACTIVITY (M) PANC-1
[19] = system: SK-HEP-1; assay: Cytotoxic activity (M) panel, Liver SK-HEP-1; conditions: Homo sapiens, SK-HEP1, read-out: CYTOTOXIC ACTIVITY (M) SK-HEP-1
[20] = system: CHSA; assay: Cytotoxic activity (M) panel, Chondrosarcoma CHSA; conditions: read-out: CYTOTOXIC ACTIVITY (M) CHSA
[21] = system: FADU; assay: Cytotoxic activity (M) panel, Pharnynx FADU; conditions: Homo sapiens, read-out: CYTOTOXIC ACTIVITY (M) FADU
[22] = system: MEL-28; assay: Cytotoxic activity (M) panel, Melanoma Mel-28; conditions: Homo sapiens, SK-MEL-28, read-out: CYTOTOXIC ACTIVITY (M) Mel-28
[23] = system: 5637; assay: Cytotoxic activity (M) panel, Bladder 5637; conditions: read-out: CYTOTOXIC ACTIVITY (M) 5637
[24] = system: OSA-FH; assay: Cytotoxic activity (M) panel, Osteosarcoma OSA-FH; conditions: read-out: CYTOTOXIC ACTIVITY (M) OSA-FH
[25] = system: PC3; assay: Cytotoxic activity (M) panel, Prostate PC3; conditions: Homo sapiens, PC-3, read-out: CYTOTOXIC ACTIVITY (M) PC3
[26] = system: HT-29; assay: Cytotoxic activity (M) panel, Colon HT-29; conditions: Homo sapiens, HT-29, read-out: CYTOTOXIC ACTIVITY (M) HT-29

## COc1c(C)cc2c(c1O)[C@@H]1C3Cc4c(OC(C)=O)c(C)c5c(c4[C@H](CNC(=O)/C=C/c4ccccc4)N3[C@@H](O)[C@H](C2)N1C)OCO5 (stereo partly drawn) [drawing 220]
[1]
  IC50: 4.62e-09 M
[2]
  IC50: 3.8e-09 M
[3]
  IC50: 3.28e-11 M
[4]
  IC50: 5.66e-10 M

## C=CCOc1c(C)c2c(c3c1CC1[C@H]4c5c(cc(C)c(OC)c5OCOC)C[C@@H]([C@H](C#N)N1[C@H]3CNC(=O)OCC(Cl)(Cl)Cl)N4C)OCO2 (stereo partly drawn)
[5]
  IC50: 130 nM
[6]
  IC50: 0.13 µM
[7]
  IC50: 0.13 µM
[8]
  IC50: 0.13 µM
[9]
  IC50: 0.13 µM

## COc1c(C)cc2c(c1O)[C@@H]1C3Cc4c(O)c(C)c5c(c4[C@H](CN4C(=O)c6ccccc6C4=O)N3[C@@H](C#N)[C@H](C2)N1C)OCO5 (stereo partly drawn)
[5]
  IC50: 1 nM

## CCCCCC(=O)NC[C@H]1c2c(c(OC(C)=O)c(C)c3c2OCO3)CC2[C@H]3c4c(cc(C)c(OC)c4O)C[C@@H]([C@H](C#N)N21)N3C (stereo partly drawn) [drawing 120]
[5]
  IC50: 0.1 nM
[10]
  IC50: 0.1 nM
[11]
  IC50: 0.1 nM
[12]
  IC50: 0.1 nM
[13]
  IC50: 0.1 nM
[14]
  IC50: 0.1 nM

## COC1=C(C)C(=O)C2=C(C1=O)[C@H](CNC(=O)[C@H](C)NC(=O)C(F)(F)F)N1C(C2)[C@H]2c3c(cc(C)c(OC)c3O)C[C@@H]([C@@H]1C#N)N2C (stereo partly drawn)
[5]
  IC50: 100 nM
[15]
  IC50: 0.01 µM
[6]
  IC50: 0.01 µM
[7]
  IC50: 0.01 µM
[8]
  IC50: 0.01 µM
[9]
  IC50: 0.01 µM

## COC1=C(C)C(=O)C2=C3C1=NCC3N1C(C2)[C@H]2c3c(cc(C)c(OC)c3O)C[C@@H]([C@@H]1C#N)N2C (stereo partly drawn)
[5]
  IC50: 2170 nM
[6]
  IC50: 2.17 µM
[7]
  IC50: 2.17 µM
[8]
  IC50: 2.17 µM
[9]
  IC50: 2.17 µM

## COc1c(C)cc2c(c1O)[C@@H]1C3Cc4c(OC(C)=O)c(C)c5c(c4[C@H](CNC(=O)/C=C/c4cccc(C(F)(F)F)c4)N3[C@@H](O)[C@H](C2)N1C)OCO5 (stereo partly drawn) [drawing 218]
[1]
  IC50: 5.5e-11 M
[2]
  IC50: 2.15e-10 M
[3]
  IC50: 1.77e-10 M
[4]
  IC50: 6.13e-10 M

## CCCC(=O)NC[C@H]1c2c(c(OC(C)=O)c(C)c3c2OCO3)CC2[C@H]3c4c(cc(C)c(OC)c4O)C[C@@H]([C@H](O)N21)N3C (stereo partly drawn) [drawing 229]
[1]
  IC50: 7.33e-09 M
[2]
  IC50: 1.62e-08 M
[3]
  IC50: 1.92e-09 M
[4]
  IC50: 1.62e-09 M

## COc1c(C)cc2c(c1O)[C@@H]1C3Cc4c(OC(C)=O)c(C)c5c(c4[C@H](CNC(=O)[C@H](C)NC(=O)C(F)(F)F)N3[C@@H](O)[C@H](C2)N1C)OCO5 (stereo partly drawn) [drawing 219]
[1]
  IC50: 2.57e-10 M
[2]
  IC50: 2.65e-10 M
[3]
  IC50: 5.27e-11 M
[4]
  IC50: 2.8e-09 M

## C=CCOc1c(C)c2c(c3c1CC1[C@H]4c5c(cc(C)c(OC)c5OCOC)C[C@@H]([C@H](C#N)N1[C@H]3COC(=O)CCc1ccccc1)N4C)OCO2 (stereo partly drawn)
[5]
  IC50: 700 nM
[15]
  IC50: 0.7 µM
[6]
  IC50: 0.7 µM
[7]
  IC50: 0.7 µM
[8]
  IC50: 0.7 µM
[9]
  IC50: 0.7 µM

## CCCCCC(=O)N[C@@H](C)C(=O)NC[C@H]1c2c(c(OC(C)=O)c(C)c3c2OCO3)CC2[C@H]3c4c(cc(C)c(OC)c4O)C[C@@H]([C@H](C#N)N21)N3C (stereo partly drawn)
[5]
  IC50: 1 nM
[15]
  IC50: 0.001 µM
[6]
  IC50: 0.001 µM
[7]
  IC50: 0.001 µM
[8]
  IC50: 0.001 µM
[9]
  IC50: 0.001 µM

## COCOc1c(OC)c(C)cc2c1[C@@H]1C3CC4=C(C(=O)C(O)=C(C)C4=O)[C@H](CNC(C)=O)N3[C@@H](C#N)[C@H](C2)N1C (stereo partly drawn)
[5]
  IC50: > 18100 nM

## COc1c(C)cc2c(c1O)[C@@H]1C3Cc4c(OC(C)=O)c(C)c5c(c4[C@H](CNC(=O)[C@H](C)NC(=O)CCc4ccccc4)N3[C@@H](O)[C@H](C2)N1C)OCO5 (stereo partly drawn) [drawing 215]
[16]
  IC50: 9.35e-10 M
[17]
  IC50: 7.88e-10 M
[18]
  IC50: 8.93e-10 M
[19]
  IC50: 1.4e-09 M
[20]
  IC50: 1.08e-09 M
[21]
  IC50: 8.41e-10 M
[22]
  IC50: 1.08e-09 M
[23]
  IC50: 1.65e-10 M
[24]
  IC50: 8.84e-10 M
[25]
  IC50: 8.13e-10 M
[26]
  IC50: 7.43e-10 M

## C=CCOc1c(C)c2c(c3c1CC1[C@H]4c5c(cc(C)c(OC)c5OCOC)C[C@@H]([C@H](C#N)N1[C@H]3CN)N4C)OCO2 (stereo partly drawn)
[5]
  IC50: 1800 nM
[15]
  IC50: 1.8 µM
[6]
  IC50: 1.8 µM
[8]
  IC50: 1.8 µM
[9]
  IC50: 1.8 µM

## COc1c(C)cc2c(c1O)[C@@H]1C3Cc4c(OC(C)=O)c(C)c5c(c4[C@H](CNC(=O)[C@H](C)NC(=O)Cc4ccccc4)N3[C@@H](C#N)[C@H](C2)N1C)OCO5 (stereo partly drawn)
[10]
  IC50: 0.1 nM
[11]
  IC50: 0.1 nM
[12]
  IC50: 0.1 nM
[13]
  IC50: 0.1 nM
[14]
  IC50: 0.1 nM

## C=CCOC(=O)Oc1c(C)c2c(c3c1CC1[C@H]4c5c(cc(C)c(OC)c5O)C[C@@H]([C@H](C#N)N1[C@H]3CNC(=O)CCc1ccccc1)N4C)OCO2 (stereo partly drawn)
[10]
  IC50: 0.1 nM
[11]
  IC50: 0.1 nM
[12]
  IC50: 0.1 nM
[13]
  IC50: 0.1 nM
[14]
  IC50: 0.1 nM

## CCC(=O)NC[C@H]1c2c(c(OC(C)=O)c(C)c3c2OCO3)CC2[C@H]3c4c(cc(C)c(OC)c4O)C[C@@H]([C@H](C#N)N21)N3C (stereo partly drawn)
[10]
  IC50: 0.1 nM
[11]
  IC50: 0.1 nM
[12]
  IC50: 0.1 nM
[13]
  IC50: 0.1 nM
[14]
  IC50: 0.1 nM

## COC1=C(C)C(=O)C2=C(C1=O)[C@H](CNC(=O)C(C)N=CSNc1ccccc1)N1C(C2)[C@H]2c3c(cc(C)c(OC)c3O)C[C@@H]([C@@H]1C#N)N2C (stereo partly drawn)
[5]
  IC50: 18 nM

## COC1=C(C)C(=O)C2=C(C1=O)[C@H](CNC(=O)C(C)N)N1C(C2)[C@H]2c3c(cc(C)c(OC)c3O)C[C@@H]([C@@H]1C#N)N2C (stereo partly drawn)
[5]
  IC50: 23 nM

## C/C=C(\OC(C)=O)C1=C(C2=COCO2)[C@H](CNC(=O)CCC)N2C(C1)[C@H]1c3c(cc(C)c(OC)c3O)C[C@@H]([C@@H]2C#N)N1C (stereo partly drawn)
[10]
  IC50: 0.1 nM
[11]
  IC50: 0.1 nM
[12]
  IC50: 0.1 nM
[13]
  IC50: 0.1 nM
[14]
  IC50: 0.1 nM

## COc1c(C)cc2c(c1O)[C@@H]1C3Cc4c(OC(C)=O)c(C)c5c(c4[C@H](CNC(=O)/C=C/c4cccc(C(F)(F)F)c4)N3[C@@H](C#N)[C@H](C2)N1C)OCO5 (stereo partly drawn)
[10]
  IC50: 0.1 nM
[11]
  IC50: 0.1 nM
[12]
  IC50: 0.1 nM
[13]
  IC50: 0.1 nM
[14]
  IC50: 0.1 nM

## C=CCOc1c(C)c2c(c3c1CC1[C@H]4c5c(cc(C)c(OC)c5O)C[C@@H]([C@H](C#N)N1[C@H]3CNC(=O)OCC(Cl)(Cl)Cl)N4C)OCO2 (stereo partly drawn)
[5]
  IC50: 14 nM
[6]
  IC50: 0.014 µM
[7]
  IC50: 0.014 µM
[8]
  IC50: 0.014 µM
[9]
  IC50: 0.014 µM

## CCCCCC(=O)N[C@@H](C)C(=O)NC[C@H]1c2c(c(OC(C)=O)c(C)c3c2OCO3)CC2[C@H]3c4c(cc(C)c(OC)c4O)C[C@@H]([C@H](O)N21)N3C (stereo partly drawn)
[5]
  IC50: 1 nM
[15]
  IC50: 0.001 µM
[6]
  IC50: 0.001 µM
[7]
  IC50: 0.001 µM
[8]
  IC50: 0.001 µM
[9]
  IC50: 0.001 µM

## COCOc1c(OC)c(C)cc2c1[C@@H]1C3CC4=C(C(=O)C(OC)=C(C)C4=O)[C@H](CNC(C)=O)N3[C@@H](C#N)[C@H](C2)N1C (stereo partly drawn)
[5]
  IC50: 220 nM
[6]
  IC50: 0.22 µM
[7]
  IC50: 0.22 µM
[8]
  IC50: 0.22 µM
[9]
  IC50: 0.22 µM
